In article PMC11272821, “Mechanistic safety assessment via multi-omic characterisation of systemic pathway perturbations following in vivo MAT2A inhibition” (Archives of Toxicology, 2024):

Tested on: rat liver proteome
Assay: Liver label-free quantitative proteomics
Format: in vivo
Settings: liver protein
Method: Liver tissue were homogenized in PreOmics iST buffer (PreOmics) using a bead ruptor. […] Peptides were purified using PreOmics iST cartridges and vacuum-centrifuged to dryness. Peptides were subsequently reconstituted in 2 vol% ACN and 0.1 vol% formic acid for single-run LC–MS analysis. Peptides were analyzed using a Thermo EASY-nLC1200 coupled online to an Exploris 480 Mass Spectrometer equipped with a Nanospray Flex Ion Source integrated with a column oven (PRSO-V1, Sonation) and a FAIMS unit. Peptides were separated using a nonlinear gradient and analyzed by acquiring spectra through Data Independent Acquisition (DIA). Data was analyzed using Spectronaut V15.7.2 (Biognosys AG) direct DIA analysis using an isoform Rat database (UniProt downloaded 22.02.2021) consisting of 9,746 protein entries utilizing the Pulsar search engine. Analysis settings were maintained to factory settings and identification was set to 1% false discovery rate (FDR) for precursor and protein level. Additional information is provided in Supplementary M&M.
Data analysis was performed using R Statistical Software (version 4.3.0). Proteomics, transcriptomics and metabolomics expression changes were visualised using heatmaps showing log2 fold change relative to control. In the heatmaps missing values were highlighted in grey.
Proteomics Analysis. Liver tissue was placed in vials containing 1.4 mm zirconia beads and taken up in 500 µL of PreOmics iST buffer (PreOmics). In a cold room set to 4 °C, tissues were homogenized utilizing a bead Ruptor 12 by shaking for 30 seconds for a total of 5 times using ‘high’ setting. Lysate was normalized using BCA assay (Thermo Fisher Scientific), and subsequently incubated at 95 °C for 10 min for reduction, and alkylation of proteins. A total of 50 μg from each sample was subjected to enzymatic cleavage for 3 h by adding equal amounts of endoproteinase Lys-C and trypsin (ThermoFisher Scientific, # A40009) in a 1:50 (wt/wt) enzyme:protein ratio. De-salting and purification were performed according to the PreOmics iST protocol on a styrene divinylbenzene reversed-phase sulfonate sorbent. Purified peptides were vacuum-centrifuged to dryness and reconstituted in double-distilled water with 2 vol% ACN and 0.1 vol% formic acid (FA) for single-run LC-MS analysis.
Peptides were loaded onto a ReproSil-Pur 120 C18AQ 1.9 µm in-house packed to a 5 µm tip 75u ID × 360u × 50 cm column using Thermo EASY-nLC 1200 coupled online to an Exploris 480 Mass Spectrometer equipped with a Nanospray Flex Ion Source integrated with a column oven (PRSO-V1, Sonation) maintained at 50 °C. Peptides were separated using a nonlinear gradient: Mobile phase A was 0.1 vol% FA and 3 vol% acetonitrile (ACN) in water, Mobile phase B was 90 vol% ACN and 0.1 vol % FA. The gradient was operated at 250 nL/min flowing 3 vol% B for 3 min, 3 to 5 vol% B over 3 min, 5 to 17 vol % B over 120 min, 17 to 24 vol % B over 26 min, 24 to 30 vol% B over 14 min, 30 to 85 vol% B over 3 min.

**Q.** `Cn1cc2cc(-c3cc4[nH]nc(C5CC5)c4n(-c4ccc(OC(F)F)cc4)c3=O)ccc2n1` [AZ’9567] was tested. Which “Ncl Log2FC” value (3mg/kg) did it give?
**A.** 0.6

**Q.** And the “Nob1 Log2FC” value (3mg/kg)?
**A.** 0.9

**Q.** And the “Orm1 Log2FC” value (3mg/kg)?
**A.** 1.1

**Q.** And the “Paics Log2FC” value (3mg/kg)?
**A.** 0.7

**Q.** And the “Pcyt1a Log2FC” value (3mg/kg)?
**A.** 0.7

**Q.** And the “Pklr.1 Log2FC” value (3mg/kg)?
**A.** -1

**Q.** What about the “Prmt1 Log2FC” value (3mg/kg) of the same compound?
**A.** 0.6

**Q.** And the “Pspc1 Log2FC” value (3mg/kg)?
**A.** 0.5

**Q.** And the “Ptprs Log2FC” value (3mg/kg)?
**A.** -0.9

**Q.** And the “Pum3 Log2FC” value (3mg/kg)?
**A.** 0.7

**Q.** And the “Rbm3 Log2FC” value (3mg/kg)?
**A.** 0.9

**Q.** And the “Rgn Log2FC” value (3mg/kg)?
**A.** -0.7

**Q.** What about the “Rmdn1 Log2FC” value (3mg/kg) of the same compound?
**A.** 0.6

**Q.** And the “S1pr1 Log2FC” value (3mg/kg)?
**A.** -0.7

**Q.** And the “Scd1 Log2FC” value (3mg/kg)?
**A.** -2.8

**Q.** What about the “Sh3glb1 Log2FC” value (3mg/kg) of the same compound?
**A.** 0.7

**Q.** And the “Sirt2 Log2FC” value (3mg/kg)?
**A.** 0.7

**Q.** And the “Sts Log2FC” value (3mg/kg)?
**A.** -0.7

**Q.** What about the “Tat Log2FC” value (3mg/kg) of the same compound?
**A.** -1.5

**Q.** And the “Tceanc2 Log2FC” value (3mg/kg)?
**A.** 1.2

**Q.** What about the “Thg1l Log2FC” value (3mg/kg) of the same compound?
**A.** 0.5

**Q.** And the “Tpmt Log2FC” value (3mg/kg)?
**A.** -1.3

**Q.** And the “Tspo Log2FC” value (3mg/kg)?
**A.** 1.7

**Q.** And the “Txnrd2 Log2FC” value (3mg/kg)?
**A.** -0.8

**Q.** What about the “Ube2f Log2FC” value (3mg/kg) of the same compound?
**A.** 0.7

**Q.** And the “Ugt2b1 Log2FC” value (3mg/kg)?
**A.** -1.6

**Q.** What about the “Wdr45 Log2FC” value (3mg/kg) of the same compound?
**A.** -0.8

**Q.** What about the “Ythdc1 Log2FC” value (3mg/kg) of the same compound?
**A.** 0.7

**Q.** And the “mvd Log2FC” value (3mg/kg)?
**A.** 0.7

**Q.** And the “A2m Log2FC” value (10mg/kg)?
**A.** 3.3

**Q.** And the “Abcb1 Log2FC” value (10mg/kg)?
**A.** 1.6

**Q.** What about the “Abhd1 Log2FC” value (10mg/kg) of the same compound?
**A.** -0.9

**Q.** What about the “Acaca Log2FC” value (10mg/kg) of the same compound?
**A.** -1.2

**Q.** And the “Acbd4 Log2FC” value (10mg/kg)?
**A.** -1.3

**Q.** And the “Acly Log2FC” value (10mg/kg)?
**A.** -0.6

**Q.** And the “Acsl1 Log2FC” value (10mg/kg)?
**A.** -0.7

**Q.** What about the “Acsl3 Log2FC” value (10mg/kg) of the same compound?
**A.** -0.6

**Q.** And the “Acsl5 Log2FC” value (10mg/kg)?
**A.** -0.6

**Q.** And the “Akap5 Log2FC” value (10mg/kg)?
**A.** -1.6

**Q.** What about the “Aldh1a1 Log2FC” value (10mg/kg) of the same compound?
**A.** 1.5

**Q.** What about the “Aldh1a7 Log2FC” value (10mg/kg) of the same compound?
**A.** 1.4

**Q.** What about the “Aldh16a1 Log2FC” value (10mg/kg) of the same compound?
**A.** -0.5

**Q.** And the “Alpl Log2FC” value (10mg/kg)?
**A.** 1.6

**Q.** What about the “Als2 Log2FC” value (10mg/kg) of the same compound?
**A.** -0.9

**Q.** What about the “Anpep Log2FC” value (10mg/kg) of the same compound?
**A.** 1.3

**Q.** And the “Aox1 Log2FC” value (10mg/kg)?
**A.** -1.3

**Q.** What about the “Apeh Log2FC” value (10mg/kg) of the same compound?
**A.** -0.7

**Q.** And the “Apoc1 Log2FC” value (10mg/kg)?
**A.** -0.9

**Q.** What about the “Aqp8 Log2FC” value (10mg/kg) of the same compound?
**A.** 0.9

**Q.** What about the “Asns Log2FC” value (10mg/kg) of the same compound?
**A.** 0.9

**Q.** And the “Baat Log2FC” value (10mg/kg)?
**A.** -1.1

**Q.** And the “Banf1 Log2FC” value (10mg/kg)?
**A.** 0.7

**Q.** And the “Bhmt2 Log2FC” value (10mg/kg)?
**A.** 1.3

**Q.** What about the “Bhmt Log2FC” value (10mg/kg) of the same compound?
**A.** 1.7

**Q.** What about the “Brix1 Log2FC” value (10mg/kg) of the same compound?
**A.** 0.9

**Q.** What about the “Ca5a Log2FC” value (10mg/kg) of the same compound?
**A.** 0.7

**Q.** And the “Carnmt1 Log2FC” value (10mg/kg)?
**A.** -1.5

**Q.** What about the “Cbs Log2FC” value (10mg/kg) of the same compound?
**A.** -3.1

**Q.** What about the “Ccnd1 Log2FC” value (10mg/kg) of the same compound?
**A.** 17.1

**Q.** And the “Cdh1 Log2FC” value (10mg/kg)?
**A.** 0.7

**Q.** And the “Cdo1 Log2FC” value (10mg/kg)?
**A.** -5.2

**Q.** And the “Ces2c Log2FC” value (10mg/kg)?
**A.** 1.2

**Q.** What about the “Cfdp1 Log2FC” value (10mg/kg) of the same compound?
**A.** 0.5

**Q.** What about the “Chid1 Log2FC” value (10mg/kg) of the same compound?
**A.** 1.0

**Q.** What about the “Comt Log2FC” value (10mg/kg) of the same compound?
**A.** -0.6

**Q.** What about the “Coq4 Log2FC” value (10mg/kg) of the same compound?
**A.** 0.6

**Q.** What about the “Csad Log2FC” value (10mg/kg) of the same compound?
**A.** -1.3

**Q.** And the “Ctbs Log2FC” value (10mg/kg)?
**A.** -0.7

**Q.** And the “Cyp2c23 Log2FC” value (10mg/kg)?
**A.** -1.1

**Q.** What about the “Cyp4a10 Log2FC” value (10mg/kg) of the same compound?
**A.** 0.7

**Q.** And the “Dbnl Log2FC” value (10mg/kg)?
**A.** 0.5

**Q.** What about the “Dcakd Log2FC” value (10mg/kg) of the same compound?
**A.** 1.3

**Q.** And the “Dkc1 Log2FC” value (10mg/kg)?
**A.** 0.6

**Q.** And the “Dmgdh Log2FC” value (10mg/kg)?
**A.** 0.5

**Q.** And the “Dohh Log2FC” value (10mg/kg)?
**A.** 0.9

**Q.** What about the “Eif4ebp1 Log2FC” value (10mg/kg) of the same compound?
**A.** 0.8

**Q.** And the “Enpep Log2FC” value (10mg/kg)?
**A.** -0.8

**Q.** And the “Fabp4 Log2FC” value (10mg/kg)?
**A.** 1.1

**Q.** And the “Fdft1 Log2FC” value (10mg/kg)?
**A.** 0.7

**Q.** What about the “Fgr Log2FC” value (10mg/kg) of the same compound?
**A.** 1.6

**Q.** And the “Gimd1 Log2FC” value (10mg/kg)?
**A.** -0.9

**Q.** What about the “Gmpr Log2FC” value (10mg/kg) of the same compound?
**A.** 0.7

**Q.** What about the “Gnl3 Log2FC” value (10mg/kg) of the same compound?
**A.** 0.9

**Q.** What about the “Gnmt Log2FC” value (10mg/kg) of the same compound?
**A.** 1.3

**Q.** What about the “Gpcpd1 Log2FC” value (10mg/kg) of the same compound?
**A.** 1.4

**Q.** What about the “Gstm1 Log2FC” value (10mg/kg) of the same compound?
**A.** -0.7

**Q.** And the “Gstm2 Log2FC” value (10mg/kg)?
**A.** -1.0

**Q.** And the “Gtpbp4 Log2FC” value (10mg/kg)?
**A.** 0.8
